Results taken from patent publication US11033641B2, “Radiolabelled mGluR2/3 pet ligands” (Janssen Pharmaceutica NV, priority 2015, dated 2021).

Experiments:
[1] = molecular target: T1, human mGlu2 (Homo sapiens, UniProt Q14416); test: [3H]-compound A displacement binding, human mGlu2 HEK293 membranes; details: Glu2 HEK293, 6 nM [3H]-compound A
T1 construct: expressed in transfected cells; host or cells: HEK293
Description: (§1) For [^3H]-compound A (a NAM compound, selective for mGlu2/3 (˜20 fold selective for 2 over 3) vs other mGluRs) binding, membranes from human mGlu2 and mGlu3 HEK293 cells, and also rat cortical membranes, were used. After thawing, membranes were homogenized using an Ultra Turrax homogenizer and suspended in ice-cold binding buffer containing 50 mM Tris-HCl (pH 7.4), 10 mM MgCl2, 2 mM CaCl2. Displacement studies were done using 6 nM of radioligand, except for human mGlu3 membranes where 25 nM was used. Assay mixtures were incubated for 60 min at RT in a volume of 0.5 ml containing […] or 75 μg membrane protein of human mGlu2, human mGlu3 or rat cortex, respectively. Non-specific binding was estimated in the presence of […] compound B (a NAM with IC50˜10 nM against hmGlu2 and IC50˜200 nM against hmGlu3). Filtration was performed using Whatman GF/C filter sheets pre-soaked in 0.1% PEI and a Brandell harvester 96.
(§2) Filters from filters sheets were punched into vials. After the addition of scintillation liquid, radioactivity on the filters was counted in a Liquid Scintillation Analyzer from Perkin Elmer.
(§3) Radioligand competition binding data were calculated as percentage of total binding measured in the absence of test compound. Inhibition curves, plotting percentage of total binding versus the log concentration of the test compound, were generated using the Lexis software. Sigmoid inhibition curves were analyzed using non-linear regression analysis.

[2] = molecular target: T2, human mGlu3 (Homo sapiens, UniProt Q14832); test: [3H]-compound A displacement binding, human mGlu3 HEK293 membranes; details: Glu3 HEK293, 25 nM [3H]-compound A
T2 construct: expressed in transfected cells; host or cells: HEK293
Description: as §1, §2, §3

[3] = test system: Glu2-3 rat cortex; test: [3H]-compound A displacement binding, rat cortical membranes; details: 6 nM [3H]-compound A
Description: as §1, §2
Radioligand competition binding data were calculated as percentage of total binding measured in the absence of test compound. […] Sigmoid inhibition curves were analyzed using non-linear regression analysis.

[4] = test system: mGluR2/3; test: microPET scan, baseline and after compound A pretreatment; format: in vivo; details: SD rats
Description: Data were acquired in a 128×128×95 matrix with a pixel width of 0.475 mm and a slice thickness of 0.796 mm. During PET imaging, rats were kept under gas anesthesia (2.5% isoflurane in oxygen at a flow rate of 1 l/min), and their body temperature was maintained between 36.5 and 37° C. using a heating pad. PET data were analyzed using Pmod software version 3.2 (Pmod, Zurich Switzerland).
Sprague-Dawley rats obtained from Harlan (the Netherlands), were housed in groups of four to six per cage until treatment. They were kept at a constant temperature of 21° C. and at a 12-h light/dark cycle, in which lights were switched on at 8:00 a.m. Animals had unrestricted access to food (Teklad Global 16% Protein Rodent Diet, Harlan, Madison, Wis., USA) and water. All animal experiments were performed in compliance with Belgium laws on animal experimentation and after approval by the local animal ethics committee.
All pretreatment solutions were 1 mg/mL solutions in 20% β-cyclodextrine in saline with a pH ranging between 6 and 8, and sterile filtered over a Millex GV filter prior to use.
For the baseline scan, 36-43 MBq of [^18F]-1 was injected in 3 SD rats weighing 229-251 g in the tail vein, and scanned simultaneously during a 90 min dynamic PET scan. For the pretreatment scan using compound A (a NAM compound, selective for mGlu2/3 (˜20 fold selective for 2 over 3) vs other mGluRs), the same animals were injected with 10 mg/kg compound A s.c. 60 minutes prior to injection of 38-37 MBq [^18F]-1 in the tail vein, and scanned simultaneously during a 90 minutes dynamic PET scan.
For the baseline scan, 39-49 MBq of [^18F]-2 was injected in 3 SD rats weighing 301-310 g in a tail vein, and scanned simultaneously during a 90-min dynamic PET scan. For the pretreatment scan using compound A, the same animals were injected with 10 mg/kg compound A s.c. 60 min prior to injection of 46-50 MBq [^18F]-2 in the tail vein, and scanned simultaneously during a 90 min dynamic PET scan.

T1 sequence (Q14416 19-872): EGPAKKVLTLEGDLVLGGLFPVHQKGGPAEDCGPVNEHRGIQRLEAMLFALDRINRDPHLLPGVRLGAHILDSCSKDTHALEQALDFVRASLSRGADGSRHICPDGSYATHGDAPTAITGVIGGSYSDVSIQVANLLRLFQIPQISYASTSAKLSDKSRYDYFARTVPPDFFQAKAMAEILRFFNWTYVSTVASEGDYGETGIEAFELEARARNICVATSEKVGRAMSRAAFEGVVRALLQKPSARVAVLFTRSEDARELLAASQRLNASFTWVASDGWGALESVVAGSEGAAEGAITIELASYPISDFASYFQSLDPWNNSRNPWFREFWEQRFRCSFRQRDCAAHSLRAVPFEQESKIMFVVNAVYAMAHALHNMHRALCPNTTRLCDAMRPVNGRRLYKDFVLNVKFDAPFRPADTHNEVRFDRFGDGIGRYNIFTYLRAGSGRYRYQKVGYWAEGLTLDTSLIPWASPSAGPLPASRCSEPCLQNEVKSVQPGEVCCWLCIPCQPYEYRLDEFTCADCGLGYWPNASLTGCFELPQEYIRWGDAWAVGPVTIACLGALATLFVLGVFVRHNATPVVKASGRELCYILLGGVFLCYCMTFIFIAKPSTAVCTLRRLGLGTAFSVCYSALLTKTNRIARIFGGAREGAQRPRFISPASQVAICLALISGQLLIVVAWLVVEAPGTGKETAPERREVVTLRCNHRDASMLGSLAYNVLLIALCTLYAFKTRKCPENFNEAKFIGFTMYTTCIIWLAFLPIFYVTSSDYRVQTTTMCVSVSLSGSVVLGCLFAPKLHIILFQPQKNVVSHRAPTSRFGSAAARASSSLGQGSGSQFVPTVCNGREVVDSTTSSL
T2 sequence (Q14832 23-879): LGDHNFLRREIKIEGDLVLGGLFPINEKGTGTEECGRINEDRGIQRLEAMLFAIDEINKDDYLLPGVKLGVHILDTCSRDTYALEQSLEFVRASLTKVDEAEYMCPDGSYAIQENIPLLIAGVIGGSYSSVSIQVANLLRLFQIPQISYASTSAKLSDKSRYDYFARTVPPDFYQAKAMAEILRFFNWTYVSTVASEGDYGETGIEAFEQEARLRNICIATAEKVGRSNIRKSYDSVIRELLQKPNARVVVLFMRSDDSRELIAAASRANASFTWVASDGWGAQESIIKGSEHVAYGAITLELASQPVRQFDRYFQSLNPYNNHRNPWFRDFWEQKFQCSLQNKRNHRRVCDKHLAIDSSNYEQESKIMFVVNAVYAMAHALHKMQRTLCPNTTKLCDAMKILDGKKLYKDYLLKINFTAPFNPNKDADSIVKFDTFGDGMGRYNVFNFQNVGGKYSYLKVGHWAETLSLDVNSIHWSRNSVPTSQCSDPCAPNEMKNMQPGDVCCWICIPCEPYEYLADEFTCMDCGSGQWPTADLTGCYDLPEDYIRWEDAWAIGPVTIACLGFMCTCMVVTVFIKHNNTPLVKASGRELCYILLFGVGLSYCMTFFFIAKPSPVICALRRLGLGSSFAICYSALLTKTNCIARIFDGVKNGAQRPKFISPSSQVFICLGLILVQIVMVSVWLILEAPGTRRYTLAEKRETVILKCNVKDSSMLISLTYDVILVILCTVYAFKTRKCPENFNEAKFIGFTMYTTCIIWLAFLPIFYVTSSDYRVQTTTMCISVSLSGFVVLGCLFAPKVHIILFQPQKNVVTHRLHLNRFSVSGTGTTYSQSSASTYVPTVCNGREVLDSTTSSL

C[C@H]1CN(c2ccc(C(F)(F)F)cc2)C(=O)c2c(C#Cc3cnc(N)cc3C[18F])cnn21 [Compound 1]
Eff Curve [1]: 93 | IC50 [1]: 2.75 nM | Eff Curve [2]: 104 | IC50 [2]: 7.24 nM | Eff Curve [3]: 95 | pIC50 [3]: 8.78 | Brain uptake after pretreatment with compound A ([4]; 10 mg/kg compound A s.c. 60 min before tracer): uptake was reduced after pretreatment with compound A | Brain uptake in PET scan, in words ([4]; 90 min dynamic PET scan): high brain uptake | mGluR2/3 specificity of binding in vivo ([4]; PET, baseline vs compound A pretreatment): good mGluR2/3 specificity
